The source of these data is patent publication US20250177481A1, “SCO-spondin-derived polypeptides for enhancing synaptic transmission” (AXOLTIS PHARMA, priority 2021, published 2025).

For experiment [1], the system named is subchronic PCP-induced cognitive deficits in mice. Nature of the experiment: T-maze continuous alternation task in subchronic PCP mice. It is filed as in vivo, Swiss CD-1 mice. The settings on record: n=10. An excerpt: Phenycyclidine (PCP) is an antagonist of NMDA receptor, its administration in healthy humans produces schizophrenia-like symptoms, therefore PCP is often used to mimic schizophrenia in rodents. […] In addition, brain samples were collected shorlty after the T-Maze test to measure the levels of cerebral biomarkers involved in synaptic plasticity.
Sixty (60) male Swiss CD-1 mice were purchased from Janvier Labs (Le Genest-Saint-Isle, France) one week before the start of the study for acclimation. Mice were group-housed (6-8 mice per Eurostandard type Ill cage) and maintained in a room with controlled temperature (21-22° C.) under a reversed 12 h/12 h light-dark cycle (lights on: 5:[…]; lights off: 05:30 am) with food and water available ad libitum. The weight of mice ranged from 25.9 and 36.4 g. […]
Nicotine used as a positive control was administered at a dose of 0.4 mg/kg intraperitoneally 30 minutes prior to the T-maze trial
After administration of compounds at different timepoints all animals were tested for continuous alternation task in the T-Maze. The T-maze apparatus was made of gray Plexiglas with a main stem (55-cm long×10-cm wide×20-cm high) and two arms (30-cm long×10-cm wide×20-cm high) positioned at a 90-degree angle relative to the main stem. A start box (15-cm long×10-cm wide) was separated from the main stem by a guillotine door. Horizontal doors were also provided to close specific arms during the force choice alternation task. The experimental protocol consisted in one single session that started with 1 “forced-choice” trial, followed by 14 “free-choice” trials (Gerlai, 1998). In the first “forced-choice” trial, the mouse was confined 5 s in the start arm and then released while either the left or right goal arm was blocked by closing the sliding door. Then, it walked through the maze, eventually entered the open goal arm, and then returned to the start position. Immediately after the mouse came back to the start position, the left or right goal door was opened (i.e. the two goal doors were opened), and the mouse could choose freely between the left and right goal arms (first “free choice trial”). The mouse was considered as entered in the arm when it placed its four paws in the arm. The opposite goal door was then closed until the animal returned to the start arm. Then, a second “free choice trial” began by the opening of the closed goal door (i.e. the two goal doors were opened), leaving the choice to the mouse to enter either into the right or the left arm. The session was considered finished as soon as 14 free-choice trials had been performed in less than 10 min, and the mouse was removed from the maze. The time needed to reach these 14 “free-choices” was recorded.
The percent of spontaneous alternations was calculated as number of spontaneous alternations divided by the number of free-choice trials, an index of spatial short-term working memory. The apparatus was cleaned between each animal using alcohol (70%). Urine and feces were removed from the maze. During the trials, animal handling and the visibility of the operator were minimized as much as possible. Animals were tested in a random and blind manner.

For experiment [2], the system named is scopolamine-induced spatial short-term working memory deficits in mice. Nature of the experiment: Y-maze spontaneous alternation in the scopolamine mouse model of amnesia. It is filed as in vivo, Swiss mice. The settings on record: for spontaneous alternance in Y-maze: n=6; for effect on scopolamine-induced spatial short-term working memory impairments (Y-maze): data not shown. As to the method: Male Swiss mice, weighing 30-35 g, from JANVIER (Saint Berthevin, France), were housed in groups with access to food and water ad libitum, except during behavioral experiments. They were kept in a temperature and humidity-controlled animal facility on a 12 h/12 h light/dark cycle (lights off at 07:[…]). Mice were numbered by marking their tail with permanent markers. All animal procedures were conducted in strict adherence to the European Union directive of Sep. 22, 2010 (2010/63/UE). In each cage (n=6 per cage), treatment regimen was the same. Animals were tested in a random and blind manner.
Donepezil (DPZ) used as positive control was administered per os at a dose of 1 mg/kg once 1 h before the YM test.
Scopolamine was administered at a dose of 0.5 mg/kg by subcutaneous injection 30 minutes before the YM session.
After administration of compounds at different timepoints all animals were tested for spontaneous alternation performance in the YM, an index of spatial working memory. The YM was designed according to Itoh and collaborators (1993) and Hiramatsu and Inoue (1999) and is made of grey polyvinylchloride. Each arm is 40-cm long, 13-cm high, 3-cm wide at the bottom, 10-cm wide at the top, and converging at an equal angle. Each mouse was placed at the end of one arm and allowed to move freely through the maze during an 8-min session. The series of arm entries, including possible returns into the same arm, were checked visually. An alternation was defined as entries into all three arms on consecutive occasions. The number of maximum alternations is therefore the total number of arm entries minus two and the percentage of alternation was calculated as (actual alternations/maximum alternations)×100. Parameters included the percentage of alternation, called memory index, and total number of arm entries, called exploration index (Maurice et al., 1996, 1988; Meunier et al., 2006; Villard et al., 2009, 2011).
Animals showing an extreme behavior (alternation percentage <20% or >90% or number of arm entries <10) would have been discarded from the calculation. No animal was discarded accordingly.

Experiment [3] deals with NMDA EPSCs in hippocampal CA1 pyramidal neurons. Nature of the experiment: patch-clamp phase 0: sequential application of NVP-AAM077 and Ifenprodil on NMDA EPSCs. It is filed as cell-based, C57Bl6/J mice. To be noted: 3 cells, data not shown. How it is done: Twelve (C57Bl6/J) male mice 4-5 weeks-old were obtained from Charles River, France and housed in an animal facility. Animal care was compliant with national and local Ethics committee recommendations. Sagittal hippocampal brain slices were obtained using standard brain slicing methods (approximately 6 slices per mouse) (Knobloch et al. 2007). Mice were anesthetized with isoflurane and then decapitated. […] Acute slices (350 μm thick) were prepared using a vibratome (VT 1000S; Leica Microsystems, Bannockburn, IL). Sections were incubated in standard aCSF at room temperature for at least 1 h before recordings. […] Recordings were acquired using Clampex 10 (Molecular Devices) and analyzed with Clampfit (Molecular Devices). […] A total of 23 neurons were recorded (10 per group (phases 1 and 2) and 3 in a control phase (phase 0) as follow. In each recording session, 10 EPSCs were induced in response to Schaffer collateral stimulations. Measurements of the amplitudes (average of 10 EPCS) were assessed. Phase 0 represented a validation phase aiming at confirming that GluN2A and GluN2B were the predominant NR2 subunits involved in the EPSCs evoked by Schaffer collateral stimulation. We expected the residual current at the end of phase 0 to be minimal.
A general note: In patch-clamp work, channel activity is measured electrically.

The target in experiment [4] is T1, GluN2A subunit of NMDAR (isolated evoked NMDAR currents in CA1 hippocampal neurons) (Mus musculus, UniProt P35436).
T1 construct: Sagittal hippocampal brain slices were obtained using standard brain slicing methods; from tissue; host or cells: acute hippocampal slices of C57Bl6/J mice, CA1 pyramidal neurons
Nature of the experiment: patch-clamp phase 1: NMDAR EPSCs with GluN2B subunits blocked by Ifenprodil. To be noted: Ifenprodil 3 μM alone; control = 100; mean of 10 cells. It is filed as cell-based, C57Bl6/J mice. An excerpt:
(§1) Selective antagonists of GluN2A and GluN2B subunits were also used.
(§2) Twelve (C57Bl6/J) male mice 4-5 weeks-old were obtained from Charles River, France and housed in an animal facility. Animal care was compliant with national and local Ethics committee recommendations. Sagittal hippocampal brain slices were obtained using standard brain slicing methods (approximately 6 slices per mouse) (Knobloch et al. 2007). Mice were anesthetized with isoflurane and then decapitated. […]
(§3) The signal was amplified with an Axopatch 200B amplifier (Molecular Devices, Union City, CA), digitized by a Digidata 1550 interface (Molecular Devices). Recordings were acquired using Clampex 10 (Molecular Devices) and analyzed with Clampfit (Molecular Devices). […]
(§4) A total of 12 mice was dedicated to the study. A total of 23 neurons were recorded (10 per group (phases 1 and 2) and 3 in a control phase (phase 0) as follow. In each recording session, 10 EPSCs were induced in response to Schaffer collateral stimulations. Measurements of the amplitudes (average of 10 EPCS) were assessed. Phase 0 represented a validation phase aiming at confirming that GluN2A and GluN2B were the predominant NR2 subunits involved in the EPSCs evoked by Schaffer collateral stimulation. We expected the residual current at the end of phase 0 to be minimal.

Experiment [5] deals with T2, GluN2B subunit of NMDAR (isolated evoked NMDAR currents in CA1 hippocampal neurons) (Mus musculus, UniProt Q01097).
T2 construct: Sagittal hippocampal brain slices were obtained using standard brain slicing methods; from tissue; host or cells: acute hippocampal slices of C57Bl6/J mice, CA1 pyramidal neurons
Nature of the experiment: patch-clamp phase 2: NMDAR EPSCs with GluN2A subunits blocked by NVP-AAM077. It is filed as cell-based, C57Bl6/J mice. To be noted: NVP-AAM077 0.4 μM alone; control = 100; mean of 10 cells.
Text: as §1, §2, §3, §4

Where “and” joins values, the source holds several entries; their conditions need not be identical. Identical values can stand only once.

T1 sequence (P35436 23-1464, other chains not shown): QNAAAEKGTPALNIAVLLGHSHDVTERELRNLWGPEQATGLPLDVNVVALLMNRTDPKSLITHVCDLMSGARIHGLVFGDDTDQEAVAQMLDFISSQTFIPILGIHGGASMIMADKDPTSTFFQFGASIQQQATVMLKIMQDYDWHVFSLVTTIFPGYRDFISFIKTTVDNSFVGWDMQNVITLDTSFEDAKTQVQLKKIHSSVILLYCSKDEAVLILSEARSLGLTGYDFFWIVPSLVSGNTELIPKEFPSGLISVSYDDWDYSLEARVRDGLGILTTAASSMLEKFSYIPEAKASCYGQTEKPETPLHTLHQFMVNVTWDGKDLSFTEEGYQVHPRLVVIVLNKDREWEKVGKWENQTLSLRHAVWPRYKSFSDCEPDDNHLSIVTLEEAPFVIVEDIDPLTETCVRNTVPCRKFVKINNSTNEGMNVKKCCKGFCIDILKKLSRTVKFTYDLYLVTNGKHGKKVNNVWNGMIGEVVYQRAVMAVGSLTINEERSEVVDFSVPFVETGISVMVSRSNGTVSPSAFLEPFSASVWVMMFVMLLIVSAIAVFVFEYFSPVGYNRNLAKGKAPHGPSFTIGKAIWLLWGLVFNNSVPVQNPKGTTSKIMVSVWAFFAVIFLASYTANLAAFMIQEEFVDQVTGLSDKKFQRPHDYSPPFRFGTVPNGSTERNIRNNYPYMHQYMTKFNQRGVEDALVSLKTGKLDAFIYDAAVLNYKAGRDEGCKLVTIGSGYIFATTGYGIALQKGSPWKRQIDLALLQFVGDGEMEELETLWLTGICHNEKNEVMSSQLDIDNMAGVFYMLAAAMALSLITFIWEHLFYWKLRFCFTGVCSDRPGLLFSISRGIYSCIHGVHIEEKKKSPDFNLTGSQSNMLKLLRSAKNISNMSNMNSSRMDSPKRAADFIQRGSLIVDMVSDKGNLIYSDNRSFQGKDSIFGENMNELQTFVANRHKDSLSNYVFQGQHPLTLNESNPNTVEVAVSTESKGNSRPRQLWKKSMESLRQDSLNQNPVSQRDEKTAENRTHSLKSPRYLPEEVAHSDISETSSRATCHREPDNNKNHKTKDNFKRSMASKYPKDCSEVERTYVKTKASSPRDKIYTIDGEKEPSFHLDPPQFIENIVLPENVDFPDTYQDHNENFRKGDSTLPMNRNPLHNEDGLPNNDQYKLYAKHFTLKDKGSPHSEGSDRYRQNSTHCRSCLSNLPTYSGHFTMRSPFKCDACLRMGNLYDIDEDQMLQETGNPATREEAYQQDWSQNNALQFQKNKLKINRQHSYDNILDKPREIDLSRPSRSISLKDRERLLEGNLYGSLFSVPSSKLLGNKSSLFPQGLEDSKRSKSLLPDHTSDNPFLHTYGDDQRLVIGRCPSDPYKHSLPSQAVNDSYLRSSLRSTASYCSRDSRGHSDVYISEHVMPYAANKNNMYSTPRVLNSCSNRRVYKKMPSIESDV
T2 sequence (Q01097 27-1482, other chains not shown): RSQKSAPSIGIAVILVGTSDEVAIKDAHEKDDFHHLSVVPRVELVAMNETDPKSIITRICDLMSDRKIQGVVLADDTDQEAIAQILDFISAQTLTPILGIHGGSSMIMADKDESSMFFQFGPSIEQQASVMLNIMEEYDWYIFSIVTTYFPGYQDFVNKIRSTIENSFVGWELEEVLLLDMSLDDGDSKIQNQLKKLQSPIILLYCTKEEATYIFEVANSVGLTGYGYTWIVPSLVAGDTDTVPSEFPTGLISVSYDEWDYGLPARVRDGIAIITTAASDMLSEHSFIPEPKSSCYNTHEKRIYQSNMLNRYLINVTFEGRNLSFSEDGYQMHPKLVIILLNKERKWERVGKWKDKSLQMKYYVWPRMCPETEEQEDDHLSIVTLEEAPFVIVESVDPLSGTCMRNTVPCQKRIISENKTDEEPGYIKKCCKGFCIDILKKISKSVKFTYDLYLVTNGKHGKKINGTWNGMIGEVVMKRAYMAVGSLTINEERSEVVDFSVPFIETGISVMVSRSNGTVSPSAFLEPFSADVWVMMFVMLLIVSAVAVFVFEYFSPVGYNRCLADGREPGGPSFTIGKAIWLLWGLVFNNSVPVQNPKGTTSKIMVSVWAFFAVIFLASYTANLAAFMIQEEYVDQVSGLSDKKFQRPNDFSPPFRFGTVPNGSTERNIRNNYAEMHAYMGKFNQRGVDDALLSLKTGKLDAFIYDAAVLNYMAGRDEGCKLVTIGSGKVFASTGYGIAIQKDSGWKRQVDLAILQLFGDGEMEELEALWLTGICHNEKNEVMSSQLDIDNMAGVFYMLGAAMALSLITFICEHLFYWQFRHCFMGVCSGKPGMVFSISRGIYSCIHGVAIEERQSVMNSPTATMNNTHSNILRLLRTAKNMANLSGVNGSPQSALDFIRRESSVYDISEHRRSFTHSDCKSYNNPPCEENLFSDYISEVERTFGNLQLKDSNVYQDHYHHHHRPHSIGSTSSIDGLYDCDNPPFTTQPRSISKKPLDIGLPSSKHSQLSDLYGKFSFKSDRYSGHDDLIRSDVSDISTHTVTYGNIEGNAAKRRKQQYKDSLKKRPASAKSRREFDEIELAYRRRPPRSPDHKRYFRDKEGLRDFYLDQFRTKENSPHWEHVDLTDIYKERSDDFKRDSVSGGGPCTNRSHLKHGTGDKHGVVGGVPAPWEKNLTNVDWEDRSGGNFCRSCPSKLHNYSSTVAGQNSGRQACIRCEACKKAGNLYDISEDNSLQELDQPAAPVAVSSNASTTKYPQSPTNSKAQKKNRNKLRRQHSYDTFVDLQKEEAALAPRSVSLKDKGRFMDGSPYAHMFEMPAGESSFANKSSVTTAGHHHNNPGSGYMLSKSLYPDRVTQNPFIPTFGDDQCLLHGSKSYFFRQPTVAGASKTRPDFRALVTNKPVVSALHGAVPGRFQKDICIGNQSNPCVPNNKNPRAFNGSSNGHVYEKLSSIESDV

Regarding `CN1CCCC1c1cccnc1` (stereo not shown) [Nicotine, reference compound], the “Spontaneous alternations in T-maze” value in experiment [1] (PCP + 0.4 mg/kg i.p. 30 min before trial (D14), PCP alone 30.71, control 66.43, 0.4 mg/kg) was 62% and 62.14%.

On to `CN1[C@@H]2C[C@@H](OC(=O)[C@H](CO)c3ccccc3)C[C@H]1[C@@H]1O[C@@H]12` [Scopolamine, reference compound], for which the “spontaneous alternance in Y-maze” value in experiment [2] (scopolamine 0.5 mg/kg s.c. 30 min before test, alone, control 70, mean) amounted to 45%.

As for `c1ccc(C2(N3CCCCC3)CCCCC2)cc1` [PCP, phencyclidine, reference compound], the “Spontaneous alternations in T-maze” value in experiment [1] (PCP 0.2 mg/kg s.c. twice daily D1-D11, vehicle-treated, saline control 66.43) is 31% and 30.71%.

Take `CC(C(O)c1ccc(O)cc1)N1CCC(Cc2ccccc2)CC1` (stereo not shown) [Ifenprodil]: in experiment [3] (NVP-AAM077 0.4 μM + Ifenprodil 3 μM), the “NMDA EPSCs amplitude” value was “significantly decreased”. Further, the “Normalized amplitude of evoked isolated NMDA excitatory postsynaptic currents” value in experiment [4] is reported as 78.74 % of control.

Consider “W-S-G-W-S-S-C-S-R-S-C-G [NX210] (WSGWSSCSRSCG; reduced linear form)”, for which the “effect on scopolamine-induced spatial short-term working memory impairments (Y-maze)” value in experiment [2] (15 mg/kg i.p. once 48 h before the test) is listed as “maintained but less pronounced”; in experiment [2] (administered i.p. 2 h or 1 h before the test), “No effect”; in experiment [2] (dose lower than 10 mg/kg i.p.), “No effect”. For the same compound, the “dose with maximum effect on scopolamine-induced memory impairments (Y-maze)” value in experiment [2] (i.p. once 24 h before the test, bell-shaped dose-response curve) was found to be 15 mg/kg. In addition, the “spontaneous alternance in Y-maze” value in experiment [2] (scopolamine + 10 mg/kg i.p. 24 h before test, scopolamine alone 45, control 70, 10 mg/kg) stood at 59%; in experiment [2] (scopolamine + 15 mg/kg i.p. 24 h before test, scopolamine alone 45, control 70, 15 mg/kg) it was 69%.

Take `C[C@H](NC(c1cccc2[nH]c(=O)c(=O)[nH]c12)P(=O)(O)O)c1ccc(Br)cc1` (stereo partly shown) [NVP-AAM077]: in experiment [3] (NVP-AAM077 0.4 μM), the “NMDA EPSCs amplitude” value is reported as “significantly decreased”. For the same compound, the “Normalized amplitude of evoked isolated NMDA excitatory postsynaptic currents” value in experiment [5] is listed as 56.35 % of control.
